Source: patent publication US20220054494A1, “METHODS FOR TREATING BLADDER AND URETHRA DYSFUNCTION AND DISEASE” (University of Pittsburgh - Of the Commonwealth System of …, priority 2019, published 2022)
Entries after “also recorded” stand apart in the source; their conditions may differ.

Columns and labels:
[1] = tested on: bladder wall collagen fibers; assay: Planar biaxial mechanical testing coupled with multiphoton microscopy of bladder wall; format: in vivo, rat; conditions: aged rats
Description: Protocol 3: Planar biaxial mechanical testing coupled with multiphoton microscopy was performed on bladder wall specimens to assess bladder mechanical function while simultaneously observing changes in the collagen microstructure. Briefly, the unloaded intact bladder diameter (do) and meridional length (hv) were measured and used to calculate the unloaded bladder volume (V0) from the ellipsoid volume, V0=πd0^2h0/6. The intact bladders were then cut open longitudinally and trimmed into 6±1 mm×6±1 mm square specimens for mechanical testing with sides aligned in the in situ longitudinal and circumferential directions. Samples were then positioned in the custom-designed biaxial testing system and mechanically tested using fiducial markers on the sample to calculate stretch, defined as the ratio of distance between markers in sample when loaded and unloaded. A multiphoton microscope (OLYMPUS® FV1000 MPE) equipped with a Coherent Cheleon TiSapphire pulsed Laser was used to image the undulated (wavy) collagen fibers in the mounted samples without staining or fixation during loading (i.e., stretch) as per previously published methods. Stacks of 2D planar images were generated by imaging sequentially across the wall thickness. To avoid tissue damage while obtaining a large range of stretch, loading was stopped at the stretch where collagen fibers were visibly straightened (heretofore termed recruited). This was defined as the maximum stretch. Fiber tortuosity was measured by tracing collagen fibers across the 2D slices (Filament function in Imaris, Bitplane, Switzerland). Fiber arc length (s) and cord length (L) were determined for each fiber tracing and used to calculate the tortuosity. The tortuosity of an undulated or wavy fiber is, therefore, greater than one and approaches one as the fiber becomes fully straightened.
Bi-axial Stretch Combined with Multi-Photon (MPM) Imaging: Planar biaxial mechanical testing coupled with multiphoton microscopy was performed on bladder wall specimens to assess bladder mechanical function while simultaneously observing changes in the collagen microstructure. Briefly, the unloaded intact bladder diameter (do) and meridional length (hv) were measured and used to calculate the unloaded bladder volume (V0) from the ellipsoid volume, V0=πd0^2h0/6. The intact bladders were then cut open longitudinally and trimmed into 6±1 mm×6±1 mm square specimens for mechanical testing with sides aligned in the situ longitudinal and circumferential directions. […] Fiber tortuosity was measured by tracing collagen fibers across the 2D slices (Filament function in Imaris, Bitplane, Switzerland). Fiber arc length (s) and cord length (L) were determined for each fiber tracing and used to calculate the tortuosity. […]

cleaved PARP = assay: Western immunoblotting, cleaved PARP; format: in vivo, rat; conditions: aged rats; oral 8-AG 5 mg/kg/day, 6 weeks
Description: Western immunoblotting: One half of each bladder preparation was homogenized using Lysing Matrix D in a FastPrep 24 instrument (MP Biomedicals, Solon, Ohio) in HBSS (5 mM KCl, 0.3 mM KH2PO4, 138 mM NaCl, 4 mM NaHO3, 0.3 mM Na2HCO3, 0.3 mM Na2HPO4, 5.6 mM glucose and 10 mM Hepes, pH 7.4) containing complete protease inhibitor cocktail (1 tablet/10 ml, ROCHE®, Indianapolis, Ind.)) and phosphatase inhibitor cocktail (SIGMA®, 1:100). After centrifugation (13000 rpm; 15 min at 4° C.), the membrane protein fraction was prepared by suspending the membrane pellets in lysis buffer containing 0.3 M NaCl, 50 mM Tris-HCl (pH 7.6) and 0.5% Triton X-100 and the same concentration of protease inhibitors as above. The suspensions were incubated on ice and centrifuged (13000 rpm; 15 min at 4° C.). The protein concentrations of the combined supernatants were determined using the PIERCE® BCA protein assay (THERMO SCIENTIFIC®, Rockford, Ill.). After denaturation (100° C. for 5 min) in the presence of Laemmli sample buffer, lysate from each sample was separated on a 4-15% TGX Stain-Free SDS-PAGE gel (BIO-RAD® Laboratories, Hercules, Calif.). As a loading control, total protein per sample was determined using Bio-Rad® Stain Free SDS-PAGE gel technology. UV-activated protein fluorescence was imaged on a CHEMIDOC® MP (BIO-RAD®). […] The volume (intensity) of each protein species was determined and normalized to total protein using Image Lab software (BIO-RAD®).

Rac 1 = Rac 1 (Homo sapiens, UniProt P63000); conditions: Jackson et al., J Am Heart Assoc 2018; cited from earlier work

## Nc1nc2[nH]c(N)nc2c(=O)[nH]1 [8-AG, 8-Aminoguanine]
[1]; oral 8-AG 5 mg/kg/day, 6 weeks
  bladder compliance (stress-stretch curve): more extensible (or compliant) bladder; also recorded: more extensible, compliant bladder
  collagen fiber tortuosity in the detrusor layer: increased; also recorded: restored fiber tortuosity to that of younger rats
  collagen fiber tortuosity in the lamina propria: increased; also recorded: Normalizing; also recorded: restored fiber tortuosity to that of younger rats
[1]; oral 8-AG for 1 week and 4 weeks
  critical stretch at which the steep increase in bladder stiffness occurs: recovered to levels found in young rats
Cleaved PARP
  EUS cleaved PARP: restored to a younger state
  cleaved PARP in detrusor smooth muscle: levels similar to the younger state; also recorded: restored these biomarkers to that of a younger state
  urethral cleaved PARP: normalized to a younger state
Rac 1
  Rac 1 inhibition (mechanism of reduced potassium excretion): inhibiting
